Experimental data reported in US8481732B2 (Incyte Corporation, priority 2009, dated 2013).

target: T1, histamine H4 receptor (Homo sapiens, UniProt Q9H3N8); experiment: H4 Membrane Binding Assay (3H-Histamine displacement); details: membranes of recombinant HEK293SFM cells, 10 nM 3H-Histamine, 1.5 hr at room temperature
T1 construct: expressed in transfected cells; host or cells: HEK293SFM cells (membrane preparation)
In short: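 Membranes from HEK293SFM cells expressing human H4 (also human H1–H3, mouse H4), prepared in ice-cold 50 mM Tris-HCl pH 7.5. [3H]-histamine displacement, nonspecific binding defined with 1000× unlabeled ligand. Bound radioactivity separated on PEI-treated GF/B filters and measured by liquid scintillation counting.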

T1 sequence (Q9H3N8 whole entry): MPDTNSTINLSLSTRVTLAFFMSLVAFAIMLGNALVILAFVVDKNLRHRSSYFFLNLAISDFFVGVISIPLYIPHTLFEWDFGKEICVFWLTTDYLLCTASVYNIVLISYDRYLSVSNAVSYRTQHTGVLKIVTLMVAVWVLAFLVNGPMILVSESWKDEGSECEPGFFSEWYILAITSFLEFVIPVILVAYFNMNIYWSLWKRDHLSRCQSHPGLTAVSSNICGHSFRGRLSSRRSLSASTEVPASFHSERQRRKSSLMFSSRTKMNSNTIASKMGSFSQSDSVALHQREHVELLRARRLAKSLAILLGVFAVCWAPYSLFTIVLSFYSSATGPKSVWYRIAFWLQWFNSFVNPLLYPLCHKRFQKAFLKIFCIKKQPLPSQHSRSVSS

Going from CN1CCN(c2nc(N)nc3cc(C(=O)NC(Cc4cccc(Oc5cc(Cl)cc(Cl)c5)c4)C(=O)N(C)C)ccc23)CC1 (stereo not drawn) [Example 167, 2-Amino-N-[1-[3-(3,5-dichlorophenoxy)benzyl]-2-(dimethylamino)-2-oxoethyl]-4-(4-methylpiperazin-1-yl)quinazoline-7-carboxamide] to CN1CCN(c2nc(N)nc3cc(C(=O)NC(Cc4cccc(Oc5ccc(Cl)cc5C#N)c4)C(=O)N(C)C)ccc23)CC1 (stereo not drawn) [Example 172, 2-Amino-N-[1-[3-(4-chloro-2-cyanophenoxy)benzyl]-2-(dimethylamino)-2-oxoethyl]-4-(4-methylpiperazin-1-yl)quinazoline-7-carboxamide], the IC50 rises from 15 nM to 26 nM (1.7-fold). The first is the more potent here.

First: CN1CCN(c2nc(N)nc3cc(C(=O)NC(Cc4cccc(Oc5nsnc5Cl)c4)C(=O)N(C)C)ccc23)CC1 (stereo not drawn) [Example 168, 2-Amino-N-[1-{3-[(4-chloro-1,2,5-thiadiazol-3-yl)oxy]benzyl}-2-(dimethylamino)-2-oxoethyl]-4-(4-methylpiperazin-1-yl)quinazoline-7-carboxamide]
Second: Cc1ccc(C#N)c(Oc2cccc(CC(NC(=O)c3ccc4c(N5CCN(C)CC5)nc(N)nc4c3)C(=O)N(C)C)c2)n1 (stereo not drawn) [Example 173, 2-Amino-N-[1-{3-[(3-cyano-6-methylpyridin-2-yl)oxy]benzyl}-2-(dimethylamino)-2-oxoethyl]-4-(4-methylpiperazin-1-yl)quinazoline-7-carboxamide]
The IC50 of the first is 7-fold lower: 9.6 nM for the first, 67 nM for the second. The first is the more potent here.

Compared with COC(=O)c1ccc(Oc2cccc(CC(NC(=O)c3ccc4c(N5CCN(C)CC5)nc(N)nc4c3)C(=O)N(C)C)c2)cc1 (stereo not drawn) [Example 169, Methyl 4-{3-[2-({[2-amino-4-(4-methylpiperazin-1-yl)quinazolin-7-yl]carbonyl}amino)-3-(dimethylamino)-3-oxopropyl]phenoxy}benzoate], COC(=O)c1ccc(Oc2cccc(CNC(=O)c3ccc4c(N5CCN(C)CC5)nc(N)nc4c3)c2)cc1 [Example 179, Methyl 4-{3-[({[2-amino-4-(4-methylpiperazin-1-yl)quinazolin-7-yl]carbonyl}amino)methyl]phenoxy}benzoate] is 2-fold higher in IC50: 23 nM for the first, 46 nM for the second. The first is the more potent here.

COc1ccc(C#N)c(Oc2cccc(CC(NC(=O)c3ccc4c(N5CCN(C)CC5)nc(N)nc4c3)C(=O)N(C)C)c2)c1 (stereo not drawn) [Example 170, 2-Amino-N-[1-[3-(2-cyano-5-methoxyphenoxy)benzyl]-2-(dimethylamino)-2-oxoethyl]-4-(4-methylpiperazin-1-yl)quinazoline-7-carboxamide] and CN1CCN(c2nc(N)nc3cc(C(=O)NC(Cc4cccc(Oc5cccc(C#N)c5)c4)C(=O)N(C)C)ccc23)CC1 (stereo not drawn) [Example 174, 2-Amino-N-(3-(3-(3-cyanophenoxy)phenyl)-1-(dimethylamino)-1-oxopropan-2-yl)-4-(4-methylpiperazin-1-yl)quinazoline-7-carboxamide] are the same in IC50: 23 nM for the first, 23 nM for the second.

CN1CCN(c2nc(N)nc3cc(C(=O)NC(Cc4cccc(Oc5cc(C#N)ccc5C(F)(F)F)c4)C(=O)N(C)C)ccc23)CC1 (stereo not drawn) [Example 171, 2-Amino-N-[1-{3-[5-cyano-2-(trifluoromethyl)phenoxy]benzyl}-2-(dimethylamino)-2-oxoethyl]-4-(4-methylpiperazin-1-yl)quinazoline-7-carboxamide] and CN1CCN(c2nc(N)nc3cc(C(=O)NC(Cc4cccc(OCc5cccc(C#N)c5)c4)C(=O)N(C)C)ccc23)CC1 (stereo not drawn) [Example 175, 2-Amino-N-[1-{3-[(3-cyanobenzyl)oxy]benzyl}-2-(dimethylamino)-2-oxoethyl]-4-(4-methylpiperazin-1-yl)quinazoline-7-carboxamide] are within 1.5-fold of each other in IC50: 13 nM for the first, 18 nM for the second.

Going from CC(Oc1cccc(CC(NC(=O)c2ccc3c(N4CCN(C)CC4)nc(N)nc3c2)C(=O)N(C)C)c1)c1cccc(C(F)(F)F)c1 (stereo not drawn) [Example 176, 2-Amino-N-[2-(dimethylamino)-2-oxo-1-(3-{1-[3-(trifluoromethyl)phenyl]ethoxy}benzyl)ethyl]-4-(4-methylpiperazin-1-yl)quinazoline-7-carboxamide] to CC(Oc1cccc(CNC(=O)c2ccc3c(N4CCN(C)CC4)nc(N)nc3c2)c1)c1cccc(C(F)(F)F)c1 (stereo not drawn) [Example 196, 2-Amino-4-(4-methylpiperazin-1-yl)-N-(3-{1-[3-(trifluoromethyl)phenyl]ethoxy}benzyl)quinazoline-7-carboxamide], the IC50 falls from 51 nM to 4.4 nM (12-fold). The second is the more potent here.

Going from CN1CCN(c2nc(N)nc3cc(C(=O)NC(Cc4cccc(OCc5ccc(OC(F)(F)F)cc5)c4)C(=O)N(C)C)ccc23)CC1 (stereo not drawn) [Example 177, 2-Amino-N-[2-(dimethylamino)-2-oxo-1-(3-{[4-(trifluoromethoxy)benzyl]oxy}benzyl)ethyl]-4-(4-methylpiperazin-1-yl)quinazoline-7-carboxamide] to COC(=O)c1ccc(COc2cccc(CNC(=O)c3ccc4c(N5CCN(C)CC5)nc(N)nc4c3)c2)cc1 [Example 193, Methyl 4-({3-[({[2-amino-4-(4-methylpiperazin-1-yl)quinazolin-7-yl]carbonyl}amino)methyl]phenoxy}methyl)benzoate], the IC50 falls from 56 nM to 7.2 nM (7.8-fold). The second is the more potent here.

Going from COc1ccc(Oc2cccc(CNC(=O)c3ccc4c(N5CCN(C)CC5)nc(N)nc4c3)c2)cc1 [Example 178, 2-Amino-N-[3-(4-methoxyphenoxy)benzyl]-4-(4-methylpiperazin-1-yl)quinazoline-7-carboxamide] to COc1ccc(C#N)c(Oc2cccc(CNC(=O)c3ccc4c(N5CCN(C)CC5)nc(N)nc4c3)c2)c1 [Example 180, 2-Amino-N-[3-(2-cyano-5-methoxyphenoxy)benzyl]-4-(4-methylpiperazin-1-yl)quinazoline-7-carboxamide], the IC50 rises from 7.5 nM to 25 nM (3.3-fold).

CN1CCN(c2nc(N)nc3cc(C(=O)NCc4cccc(Oc5nccc6ccccc56)c4)ccc23)CC1 [Example 181, 2-Amino-N-[3-(isoquinolin-1-yloxy)benzyl]-4-(4-methylpiperazin-1-yl)quinazoline-7-carboxamide] and CN1CCN(c2nc(N)nc3cc(C(=O)NCc4cccc(Oc5cnc6ccccc6n5)c4)ccc23)CC1 [Example 188, 2-Amino-4-(4-methylpiperazin-1-yl)-N-[3-(quinoxalin-2-yloxy)benzyl]quinazoline-7-carboxamide] are within 1.5-fold of each other in IC50: 16 nM for the first, 13 nM for the second.

Cc1ccnc(Oc2cccc(CNC(=O)c3ccc4c(N5CCN(C)CC5)nc(N)nc4c3)c2)c1 [Example 182, 2-Amino-4-(4-methylpiperazin-1-yl)-N-{3-[(4-methylpyridin-2-yl)oxy]benzyl}quinazoline-7-carboxamide] and CN1CCN(c2nc(N)nc3cc(C(=O)NCc4cccc(Oc5cc(C#N)ccn5)c4)ccc23)CC1 [Example 183, 2-Amino-N-{3-[(4-cyanopyridin-2-yl)oxy]benzyl}-4-(4-methylpiperazin-1-yl)quinazoline-7-carboxamide] are within 1.5-fold of each other in IC50: 56 nM for the first, 65 nM for the second.

First: CCOC(=O)c1cccnc1Oc1cccc(CNC(=O)c2ccc3c(N4CCN(C)CC4)nc(N)nc3c2)c1 [Example 184, Ethyl 2-{3-[({[2-amino-4-(4-methylpiperazin-1-yl)quinazolin-7-yl]carbonyl}amino)methyl]phenoxy}nicotinate]
Second: CCOC(=O)c1cc(C)nc(Oc2cccc(CNC(=O)c3ccc4c(N5CCN(C)CC5)nc(N)nc4c3)c2)c1C#N [Example 186, Ethyl 2-{3-[({[2-amino-4-(4-methylpiperazin-1-yl)quinazolin-7-yl]carbonyl}amino)methyl]phenoxy}-3-cyano-6-methylisonicotinate]
The IC50 of the first is 5.4-fold higher: 43 nM for the first, 7.9 nM for the second. The second is the more potent here.

Going from CCOC(=O)c1sc(Oc2cccc(CNC(=O)c3ccc4c(N5CCN(C)CC5)nc(N)nc4c3)c2)nc1C [Example 185, Ethyl 2-{3-[({[2-amino-4-(4-methylpiperazin-1-yl)quinazolin-7-yl]carbonyl}amino)methyl]phenoxy}-4-methyl-1,3-thiazole-5-carboxylate] to Cc1cnc(C)c(Oc2cccc(CNC(=O)c3ccc4c(N5CCN(C)CC5)nc(N)nc4c3)c2)n1 [Example 187, 2-Amino-N-{3-[(3,6-dimethylpyrazin-2-yl)oxy]benzyl}-4-(4-methylpiperazin-1-yl)quinazoline-7-carboxamide], the IC50 rises from 8.4 nM to 41 nM (4.9-fold).

Compared with Cc1cccc(Oc2cccc(CNC(=O)c3ccc4c(N5CCN(C)CC5)nc(N)nc4c3)c2)c1C#N [Example 189, 2-Amino-N-[3-(2-cyano-3-methylphenoxy)benzyl]-4-(4-methylpiperazin-1-yl)quinazoline-7-carboxamide], COc1cccc(Oc2cccc(CNC(=O)c3ccc4c(N5CCN(C)CC5)nc(N)nc4c3)c2)c1C#N [Example 190, 2-Amino-N-[3-(2-cyano-3-methoxyphenoxy)benzyl]-4-(4-methylpiperazin-1-yl)quinazoline-7-carboxamide] is 1.7-fold higher in IC50: 6.6 nM for the first, 11 nM for the second. The first is the more potent here.

Going from COC(=O)c1ccccc1Oc1cccc(CNC(=O)c2ccc3c(N4CCN(C)CC4)nc(N)nc3c2)c1 [Example 191, Methyl 2-{3-[({[2-amino-4-(4-methylpiperazin-1-yl)quinazolin-7-yl]carbonyl}amino)methyl]phenoxy}benzoate] to CN1CCN(c2nc(N)nc3cc(C(=O)NCc4cccc(OCc5cccc(C#N)c5)c4)ccc23)CC1 [Example 192, 2-amino-N-(3-(3-cyanobenzyloxy)benzyl)-4-(4-methylpiperazin-1-yl)quinazoline-7-carboxamide], the IC50 falls from 20 nM to 6.3 nM (3.2-fold).

First: COc1cc(COc2cccc(CNC(=O)c3ccc4c(N5CCN(C)CC5)nc(N)nc4c3)c2)cc(OC)c1 [Example 194, 2-Amino-N-{3-[(3,5-dimethoxybenzyl)oxy]benzyl}-4-(4-methylpiperazin-1-yl)quinazoline-7-carboxamide]
Second: CN1CCN(c2nc(N)nc3cc(C(=O)NCc4cccc(OCc5cccc6nsnc56)c4)ccc23)CC1 [Example 195, 2-Amino-N-[3-(2,1,3-benzothiadiazol-4-ylmethoxy)benzyl]-4-(4-methylpiperazin-1-yl)quinazoline-7-carboxamide]
The IC50 of the first is 2.6-fold higher: 8.7 nM for the first, 3.4 nM for the second.
